Laboratory results from paper PMC10702053, “Design, synthesis, and characterization of novel system xC^− transport inhibitors: inhibition of microglial glutamate release and neurotoxicity” (Journal of Neuroinflammation, 2023).
Entries after “also recorded” stand apart in the source; their conditions may differ. Like-named read-outs stand apart in the source and are kept apart here.

Key:
[1] = target: T1, SxC^− transporter (system xC^− cystine-glutamate antiporter) (Rattus norvegicus, UniProt A0A8I6AB70); test: Microglial glutamate release assay (LPS-activated primary microglia); format: cell-based
T1 construct: endogenous in cells
T1 sequence (A0A8I6AB70 1-502): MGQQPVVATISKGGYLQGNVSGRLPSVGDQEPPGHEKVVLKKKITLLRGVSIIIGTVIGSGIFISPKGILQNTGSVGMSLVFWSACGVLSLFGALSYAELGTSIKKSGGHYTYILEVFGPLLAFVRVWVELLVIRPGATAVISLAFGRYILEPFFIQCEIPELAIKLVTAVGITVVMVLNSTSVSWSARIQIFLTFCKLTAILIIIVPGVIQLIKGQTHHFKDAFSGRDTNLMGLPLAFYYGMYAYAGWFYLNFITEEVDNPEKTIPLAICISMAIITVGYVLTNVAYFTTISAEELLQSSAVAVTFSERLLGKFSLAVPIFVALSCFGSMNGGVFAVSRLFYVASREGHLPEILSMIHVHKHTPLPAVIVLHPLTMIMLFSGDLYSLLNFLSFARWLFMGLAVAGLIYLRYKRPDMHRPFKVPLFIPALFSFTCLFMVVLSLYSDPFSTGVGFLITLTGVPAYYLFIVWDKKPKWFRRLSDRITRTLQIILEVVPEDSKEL
T1 sequence (Q794F9 whole entry partner): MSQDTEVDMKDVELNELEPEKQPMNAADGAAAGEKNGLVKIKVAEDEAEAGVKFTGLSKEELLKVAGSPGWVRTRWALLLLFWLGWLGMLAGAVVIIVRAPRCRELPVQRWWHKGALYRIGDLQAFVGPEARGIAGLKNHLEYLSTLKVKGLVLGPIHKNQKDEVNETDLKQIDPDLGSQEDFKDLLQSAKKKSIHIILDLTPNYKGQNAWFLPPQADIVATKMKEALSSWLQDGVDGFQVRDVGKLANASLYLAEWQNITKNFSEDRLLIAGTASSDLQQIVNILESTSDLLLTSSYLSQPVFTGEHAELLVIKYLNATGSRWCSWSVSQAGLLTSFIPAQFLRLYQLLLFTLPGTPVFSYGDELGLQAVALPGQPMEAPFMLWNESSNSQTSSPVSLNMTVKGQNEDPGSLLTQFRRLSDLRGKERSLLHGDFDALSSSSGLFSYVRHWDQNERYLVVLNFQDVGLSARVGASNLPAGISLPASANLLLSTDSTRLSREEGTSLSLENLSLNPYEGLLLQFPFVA
Description: Primary cultures of rat microglia were established as described previously. Microglia were seeded at 375,000/cm^2 in 96-well plates with minimal essential medium with Earle’s salts (MEM) containing 10% fetal bovine serum (FBS). After an overnight plating, the cultures were washed twice with serum-free MEM, and then a third volume was applied containing test substances at the indicated concentrations; MEM contains 100 μM (Cys)2. Immediately thereafter, lipopolysaccharide (LPS) was added to some wells at 100 ng/ml. This concentration was selected for this particular lot of LPS as the concentration producing a slightly submaximal response (i.e., 2–5% below the maximum). After 18 h, 50 μl of medium was transferred from each well to a black, opaque-bottomed 96-well plate and combined with 50 μl of assay reagent from a Amplex® Red Glutamic Acid Assay kit (ThermoFisher). A standard curve was generated with a range of concentrations of L-glutamate (monosodium salt). The assay reagent contained 0.25 U/ml horseradish peroxidase, 0.08 U/ml L-glutamate oxidase, 0.5 U/ml L-glutamate/pyruvate transaminase, and 200 μM L-alanine. After 30 min, fluorescence was measured in a Molecular Devices SpectraMax 3 with excitation at 550 nm and emission at 590 nm; values were interpolated into the standard curve. The microglial medium was also assayed for nitric oxide using Griess reagent to confirm that none of the experimental compounds was a general inhibitor of microglial activation. We also considered whether any compound was toxic to microglia. The microglia remaining in the 96-well plates were combined with 3-(4,5-dimethylthiazol-2-yl)-2,5-diphenyl-2H-tetrazolium bromide (MTT) at a final concentration of 125 μg/ml (in MEM/FBS) and incubated for 30 min at 37 °C and 5.5% CO2. After removal of the medium, 100 μl of dimethyl sulfoxide (DMSO) was added to dissolve the formazan crystals, and absorbance at 540 nm was measured in the SpectraMax 3; the mean background obtained in wells containing DMSO alone was subtracted from each experimental value.
Data were analyzed in GraphPad Prism 9.5.1. Nonlinear regression was performed on the glutamate release assay data to derive IC50 values and the graphed plot lines. ANOVA indicated post hoc tests were applied to dosimetric data; P < 0.05 was considered significant.
Fig. 2 Microglial Glu release assay. Rat primary microglia were activated with 100 ng/ml LPS alone or immediately following application of the indicated concentrations of test substances. After 18 h in the presence of LPS, an aliquot of medium was assayed for Glu via a […]. A First generation of compounds was created by simply varying the position of a methyl group around an aromatic ring, comparing activity to 3,5-DBT. B Additional modifications were evaluated, including several that simply extend the size of the structure hypothesized to fit into the hydrophobic pocket of the SxC^− transporter. Values are represented relative to the Glu detected in cultures treated with LPS alone; each data point represents a mean of 4 cultures. Nonlinear regression was performed to provide the plot lines

[2] = target: T1, SxC^− transporter (system xC^− cystine-glutamate antiporter); test: Cystine uptake assay (selenocystine) in LPS-activated primary microglia; format: cell-based; details: LPS 100 ng/ml 15 h, selenocystine uptake 30 min, 0.03-300 μM
Description: Cystine uptake was measured essentially as per Shimomura et al. using the Cystine Uptake Assay Kit (DOJINDO). Primary microglia were seeded as per glutamate release assays, and some cultures were treated the following day with 100 ng/ml LPS. After 15 h, the cultures were washed twice with Hank’s balanced salt solution (HBSS) and then incubated 5 min at 37 °C in HBSS containing fresh LPS and test substances at the indicated concentrations. The cultures were then exposed to HBSS containing selenocystine (DOJINDO) for 30 min at 37 °C, after which they were washed three times with ice-cold phosphate-buffered saline and then fixed in 50 μl methanol. A detection buffer comprising fluorescein O,O’-diacrylate and reducing agent (DOJINDO) was then added, and the plate was sealed and incubated for 30 min at 37 °C. Reaction product was then assayed in the Molecular Devices SpectraMax 3 with excitation at 490 nm and emission at 535 nm. Blanks consisted of wells containing only cells that had been washed, fixed with methanol, and incubated with the detection buffer, and the values from these wells were subtracted from the experimental values.
Fig. 5 35DPTA7 and 35DPTSA12 inhibit cystine uptake in microglia. Rat primary microglia were activated with 100 ng/ml LPS alone for 15 h, then the indicated concentrations of test substances were applied during application of selenocystine. […]

primary cortical neurons = test: Neurotoxicity assay: microglia transwell / cortical neuron coculture, MTT; format: cell-based, rat; details: microglia treated with compound + LPS 100 ng/ml, 1 h, then 18 h with cortical neurons
Description: Primary cultures of rat cortical neurons were established as described previously; incorporation of both a serum-free medium and an intermittent treatment with cytosine arabinoside results in cultures that are among the purest neuronal primary cultures available. The cultures were seeded in 24-well plates, and 8 days later primary microglia were plated in transwell inserts (12-mm diameter) at 375,000/cm^2, washed to serum-free MEM, and treated with test substances followed immediately by LPS (100 ng/ml). After 1 h, the inserts were placed into the wells of the neuronal cultures. After an additional 18 h, the inserts were removed, and neuronal survival was evaluated by MTT assay as described above. Values are represented relative to the MTT signal produced in cultures exposed to untreated microglia.
Fig. 6 35DPTA7 and 35DPTSA12 reduced the neurotoxicity of activated microglia. Primary microglia were plated on permeable membranes in basket-type cell-culture inserts. Some cultures were treated with the indicated concentrations of 35DBTA7 or 35DBTSA12, followed immediately by application of LPS (100 ng/ml); some cultures were untreated and some received LPS alone. After 1 h, the inserts were placed into wells containing primary cortical neurons. After an additional 18 h, neuronal survival was determined by MTT assay. […]

[3] = Solubility in aqueous media (observation); format: physicochemical
[4] = Light sensitivity (observation); format: physicochemical
[5] = rat primary microglia, LPS 100 ng/ml, 18 h, nonlinear regression in GraphPad Prism, read-out: IC50 ± SEM, inhibition of microglial Glu release
[6] = rat primary microglia, LPS 100 ng/ml, 18 h

Compound	IC50 [1, 5] [nM]	Inhibition of SxC^− / microglial Glu release (in words) [1, 6]	also measured
CCC(=O)N[C@@H](Cc1cc(Br)c(O)c(Br)c1)C(=O)O [35DBTA5]	25500 ± 4590	–	–
Cc1ccc(C(=O)N[C@@H](Cc2cc(Br)c(O)c(Br)c2)C(=O)O)cc1 [35DBTA3]	159 ± 24.4	greatest potency	–
N[C@@H](Cc1ccc(O)cc1)C(=O)O [Tyr, L-tyrosine, reference compound]	–	does not possess any inhibitory properties	–
O=C(N[C@@H](Cc1cc(Br)c(O)c(Br)c1)C(=O)O)c1ccc(-c2ccccc2)cc1 [35DBTA7]	1620 ± 377	quite effective	Inhibition of cystine uptake into microglia (in words) [2]: dose-dependent inhibition; Neuronal survival (MTT) in presence of LPS-activated microglia (in words) (primary cortical neurons): elevated the survival signal; also recorded: quite effective
N[C@@H](Cc1cc(Br)c(O)c(Br)c1)C(=O)O [3,5-DBT, 3,5-dibromotyrosine]	–	potent inhibition	IC50 [1]: 3490 ± 779 nM; Solubility in water / aqueous solutions (in words) [3]: high solubility in water as a salt
Cc1ccccc1C(=O)N[C@@H](Cc1cc(Br)c(O)c(Br)c1)C(=O)O [35DBTA1]	1030 ± 440	–	–
O=C(O)[C@H](Cc1cc(Br)c(O)c(Br)c1)NC(=O)C(F)(F)F [35DBTA6]	–	trend toward inhibitory properties at low concentrations but produced a reversal of that trend above 3 μM	–
N[C@@H](Cc1nc(I)[nH]c1I)C(=O)O [2,5-DIH, 2,5-diiodohistidine]	–	completely inactive	–
N[C@@H](Cc1cc(I)c(O)c(I)c1)C(=O)O [3,5-DIT]	665 ± 126	–	Light sensitivity [4]: exceedingly light sensitive
Cc1cccc(C(=O)N[C@@H](Cc2cc(Br)c(O)c(Br)c2)C(=O)O)c1 [35DBTA2]	5790 ± 3960	–	–
O=C(N[C@@H](Cc1cc(Br)c(O)c(Br)c1)C(=O)O)c1ccc(-c2ccc(-c3ccccc3)cc2)cc1 [35DBTA8]	172 ± 5.6	quite effective	Solubility in water / aqueous solutions (in words) [3]: poorly soluble; Solubility of the disodium salt (carboxylate and phenoxide) in aqueous media ([3]; disodium salt): poorly soluble
